This note sets out measurements from PMC3172300, “Modulation of Catalytic Activity in Multi-Domain Protein Tyrosine Phosphatases” (PLoS ONE, 2011).

Assay [1] concerns the target T1, DLAR D2 (Drosophila melanogaster, UniProt P16621).
T1 construct: DLAR 1728-2029; His tag (pET-15b or pET-22b); made in house; host or cells: E. coli BL21(DE3)
T1 sequence (P16621 1728-2029): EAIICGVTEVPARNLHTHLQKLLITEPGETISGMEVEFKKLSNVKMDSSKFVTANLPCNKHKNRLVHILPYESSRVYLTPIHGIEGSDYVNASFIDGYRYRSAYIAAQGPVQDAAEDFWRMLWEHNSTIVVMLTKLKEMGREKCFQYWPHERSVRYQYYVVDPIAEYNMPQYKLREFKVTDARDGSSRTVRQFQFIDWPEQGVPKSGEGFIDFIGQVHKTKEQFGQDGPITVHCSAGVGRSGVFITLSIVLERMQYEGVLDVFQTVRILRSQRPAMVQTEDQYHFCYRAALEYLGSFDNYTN
In words: Surface Plasmon Resonance peptide binding, DLAR D2. To be noted: column second binding site, single-site model. The protocol: The binding of phosphotyrosine peptides to the PTP domains was studied by Surface Plasmon Resonance on a Biacore-2000 instrument (BIAcore, AB). All experiments were conducted at 25°C. DLAR PTP domains were immobilized onto carboxylated dextran CM5 chips (BIAcore AB) using the standard amine coupling procedure as recommended by the manufacturer. Binding and kinetic assays were performed in 10 mM HEPES, pH 8.0, 150 mM NaCl, 10 mM DTT and 3 mM EDTA at a flow rate of 5 µL/min. The peptides were used at concentrations ranging from 50–700 µM. Dissociation was initiated by replacing the analyte with buffer. The association and dissociation curves were monitored for 600 sec. Sensograms were analyzed with BIA-evaluation software version 2 (BIAcore AB). Sensograms for DLAR D1D2, DLAR D1HSSD2 and DLAR D1D2HSS were fitted to two-site binding equations. DLAR D1 and DLAR D2 sensograms were fitted using a single-site binding model.

The target of assay [2] is T1, DLAR D2. In words: Phosphatase assay using pNPP, DLAR D2. To be noted: CGH buffer pH 6.5. The assay is classed as biochemical. The protocol:
(§1) Phosphatase activity of the recombinant PTP domains was determined by using para-Nitrophenylphosphate (pNPP), a small molecule generic substrate, as well as phosphotyrosine containing peptides. The pNPP assay was performed as reported previously, with a modification in the buffer composition (25 mM Citrate, Glycine and HEPES (CGH), pH 6.5, 100 mM NaCl and 2 mM DTT). Phosphatase activity with the phosphotyrosine peptides was ascertained by the malachite green reaction as described for PTPs previously. Briefly, the reaction mixture comprised of 0.01 µM protein incubated with increasing concentrations of different peptides in 25 mM citrate buffer pH 6.0, 100 mM NaCl and 2 mM DTT for 15 min at 25°C. The reaction was stopped by the addition of the Biomol Green reagent (Enzo Life Sciences) and the colour developed after 20 min was quantified at 650 nm. For all the assays, kinetic constants for the steady state catalysis were obtained by fitting the reaction curves to the Michaelis-Menten equation using the nonlinear regression module of Sigma plot software (Systat Software, Inc.).

The target in a further assay is T2, PTP99A D1D2 (Drosophila melanogaster, UniProt P35832).
T2 sequence (P35832 450-1050): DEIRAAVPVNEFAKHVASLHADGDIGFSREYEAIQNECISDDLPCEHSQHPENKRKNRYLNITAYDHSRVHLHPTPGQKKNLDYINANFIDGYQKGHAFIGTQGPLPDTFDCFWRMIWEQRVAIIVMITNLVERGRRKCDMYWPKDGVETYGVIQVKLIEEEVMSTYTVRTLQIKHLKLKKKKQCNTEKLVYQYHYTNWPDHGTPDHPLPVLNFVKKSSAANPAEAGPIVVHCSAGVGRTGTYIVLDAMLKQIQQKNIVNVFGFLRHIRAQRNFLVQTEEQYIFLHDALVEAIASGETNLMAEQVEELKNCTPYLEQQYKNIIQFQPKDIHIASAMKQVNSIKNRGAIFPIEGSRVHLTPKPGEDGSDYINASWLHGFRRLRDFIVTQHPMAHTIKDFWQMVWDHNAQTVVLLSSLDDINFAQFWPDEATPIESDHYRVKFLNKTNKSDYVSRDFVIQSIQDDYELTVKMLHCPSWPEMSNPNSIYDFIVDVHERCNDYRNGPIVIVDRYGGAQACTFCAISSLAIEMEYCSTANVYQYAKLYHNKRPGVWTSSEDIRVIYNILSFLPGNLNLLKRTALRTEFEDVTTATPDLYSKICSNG
Put plainly: Phosphatase assay using pNPP, PTP99A D1D2. The arrangement: PTP99A 450-1050; His tag (pET-15b or pET-22b); made in house; host or cells: E. coli BL21(DE3). The class given is biochemical. Particulars: CGH buffer pH 6.5, 100 mM NaCl, 2 mM DTT. The protocol:
as §1
(§2) The tandem PTP domains of PTP99A (PTP99A D1D2) and DLAR (DLAR D1D2) , the individual PTP domains (D1 and D2) as well as the active site mutants were expressed in E. coli and were purified using the protocols described earlier (Figure 1a, Figure S1a, b & c). The biochemical characterization and catalytic activity measurements were performed using pNPP as a substrate. […] Thus the D2 domain appears to have a regulatory role in both RPTPs- decreasing the catalytic activity in the case of DLAR while increasing the catalytic activity in the case of PTP99A (Figure 1b).

The test system of assay [3] is PTP99A D1 active site cysteine to serine mutant. In words: Phosphatase assay using pNPP, PTP99A D1 active site Cys to Ser mutant. The class given is biochemical, Drosophila melanogaster. Particulars: active site cysteine to serine in D1. The source says: Cosmids containing the genes encoding RPTPs DLAR and PTP99A were a kind gift from Prof. Kai Zinn (Caltech). The PTP domains of PTP99A and DLAR were PCR amplified and ligated between the NheI and XhoI restriction sites of the bacterial expression vectors pET-15b and pET-22b. The active site mutants (with the nucleophilic cysteines in the PTP domains of DLAR and PTP99A mutated to serines) were obtained by using a single primer approach. An XbaI site was incorporated in the primers to aid screening of mutants. All clones were confirmed by sequencing (Macrogen Inc.). The details of the expression constructs are compiled in Table S1 and Figure 1a.
Phosphatase activity of the recombinant PTP domains was determined by using para-Nitrophenylphosphate (pNPP), a small molecule generic substrate, as well as phosphotyrosine containing peptides. The pNPP assay was performed as reported previously, with a modification in the buffer composition (25 mM Citrate, Glycine and HEPES (CGH), pH 6.5, 100 mM NaCl and 2 mM DTT). Phosphatase activity with the phosphotyrosine peptides was ascertained by the malachite green reaction as described for PTPs previously. […] The reaction was stopped by the addition of the Biomol Green reagent (Enzo Life Sciences) and the colour developed after 20 min was quantified at 650 nm. […]

Another assay concerns the target T3, DLAR D1 D2HSS (Drosophila melanogaster, UniProt P16621, C1961S).
T3 construct: DLAR 1448-2029; His tag (pET-15b or pET-22b); made in house; host or cells: E. coli BL21(DE3)
In words: Phosphatase assay using pNPP, DLAR D1 D2HSS. The class given is biochemical. Particulars: CGH buffer pH 6.5, 100 mM NaCl, 2 mM DTT. The protocol: as §1, §2

Where “and” joins values, the source holds several entries; their conditions need not be identical. Identical values can stand only once. Square brackets hold non-standard residues; d marks the D form. Peptide text beside a SMILES is read from it. pY = N[C@@H](Cc1ccc(OP(=O)(O)O)cc1)C(=O)O

T3 sequence (P16621 1448-2029 C1961S): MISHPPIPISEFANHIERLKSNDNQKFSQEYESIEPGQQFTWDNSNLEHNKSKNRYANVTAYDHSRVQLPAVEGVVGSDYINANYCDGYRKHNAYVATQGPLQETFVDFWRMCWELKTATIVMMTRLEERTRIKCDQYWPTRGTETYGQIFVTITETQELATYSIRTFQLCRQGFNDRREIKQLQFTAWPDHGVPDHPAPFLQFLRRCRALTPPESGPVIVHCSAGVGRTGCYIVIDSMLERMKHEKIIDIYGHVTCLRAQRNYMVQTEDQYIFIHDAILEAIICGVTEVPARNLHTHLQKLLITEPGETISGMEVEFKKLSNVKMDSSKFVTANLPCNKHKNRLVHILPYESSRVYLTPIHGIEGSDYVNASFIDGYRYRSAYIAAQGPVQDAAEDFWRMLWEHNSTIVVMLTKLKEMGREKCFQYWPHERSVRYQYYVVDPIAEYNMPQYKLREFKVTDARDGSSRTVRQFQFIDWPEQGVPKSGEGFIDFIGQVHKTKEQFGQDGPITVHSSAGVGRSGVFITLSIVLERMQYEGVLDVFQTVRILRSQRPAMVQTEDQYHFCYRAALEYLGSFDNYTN

Take `CC(C)C[C@H](NC(=O)[C@H](C)NC(=O)CNC(=O)[C@H](Cc1ccc(OP(=O)(O)O)cc1)NC(=O)[C@H](CC(=O)O)NC(=O)[C@@H]1CCCN1C(=O)[C@H](CCC(=O)O)NC(=O)[C@H](C)NC(=O)[C@@H](N)[C@@H](C)O)C(=O)N[C@@H](Cc1ccc(O)cc1)C(=O)N[C@@H](CCC(=O)O)C(=O)O` [Cuticle peptide] (H-TAEPD[pY]GALYE-OH): the kon on DLAR D2 [1] (SPR Biacore-2000, 25°C, 10 mM HEPES pH 8.0, 150 mM NaCl, 10 mM DTT, 3 mM EDTA, peptides 50–700 µM, read-out: ka) turned out to be 52.8 ± 0.69 M⁻¹ s⁻¹. The molecule also came in with a Kd at DLAR D2 [1] (SPR, 25°C, pH 8.0) of 104.5 ± 0.06 µM.
For the molecule `O=[N+]([O-])c1ccc(OP(=O)(O)O)cc1` [pNPP, para-Nitrophenylphosphate], the PTPase activity result is “no detectable activity” at DLAR D2 [2] and “inactive enzyme” in assay [3]. For the same molecule, the Kcat on PTP99A D1D2 is 33.80 ± 0.59 s⁻¹; at DLAR D1 D2HSS, 6.49 ± 0.17 s⁻¹. The Kcat/Km at PTP99A D1D2 is on record as 14.92 ± 0.98 x 10^3 sec^-1M^-1; on DLAR D1 D2HSS, 1.97 ± 0.10 x 10^3 sec^-1M^-1. Further, the Vmax on PTP99A D1D2 (Michaelis-Menten fit) is 24.89 µmol/min/mg and 24.89 ± 0.52 µmol/min/mg; at DLAR D1 D2HSS (Michaelis-Menten fit) it was 5.84 ± 0.15 µmol/min/mg.
